For eleven molecules, MIC results are on record in ChEMBL document CHEMBL1139670, “Novel 4-N-substituted aryl pent-2-ene-1,4-dione derivatives of piperazinyloxazolidinones as antibacterials” (2006).

The structures appear in SMILES notation. Values after ≈ are worked out from the molar mass of the structure shown. Active and inactive are the calls of the source.

What all share (format): functional
In assay [1] the test system is Enterococcus faecalis. Kind of assay: Antibacterial activity against Enterococcus faecalis ATCC 14506.
For the next assay, the system named is Streptococcus pyogenes. The assay is described as follows: Antibacterial activity against Streptococcus pyogenes ATCC 14289.
Another assay has as its system Bacillus pumilus. Kind of assay: Antibacterial activity against Bacillus pumilus ATCC 14348.
The subject of another assay is Streptococcus pneumoniae. The assay is described as follows: Antibacterial activity against penicillin-resistant Streptococcus pneumoniae ATCC 700904.
Assay [2] has as its system Staphylococcus aureus. Kind of assay: Antibacterial activity against linezolid-resistant Staphylococcus aureus NRS 119.
The test system of assay [3] is Enterococcus faecalis. The assay is described as follows: Antibacterial activity against Enterococcus faecalis ATCC 35550.
The test system of assay [4] is Staphylococcus aureus. Kind of assay: Antibacterial activity against methicillin-resistant Staphylococcus aureus ATCC 700699.
For assay [5], the system named is Staphylococcus aureus. The assay is described as follows: Antibacterial activity against Staphylococcus aureus ATCC 25923.
The subject of assay [6] is Staphylococcus aureus. Kind of assay: Antibacterial activity against Staphylococcus aureus ATCC 14154.
Assay [7] relates to Staphylococcus aureus. Kind of assay: Antibacterial activity against Staphylococcus aureus ATCC 9144.
In assay [8] the test system is Staphylococcus aureus. Kind of assay: Antibacterial activity against Staphylococcus aureus ATCC 29213.
Assay [9] relates to Staphylococcus epidermidis. Kind of assay: Antibacterial activity against Staphylococcus epidermidis ATCC 155.
Assay [10] relates to Enterococcus faecalis. The assay is described as follows: Antibacterial activity against vancomycin-resistant Enterococcus faecalis ATCC 700802.

A word on the MIC: it is the smallest concentration in the dilution series that meets the test's criterion for growth inhibition. Take `COc1ccc(C(=O)/C=C/C(=O)N2CCN(c3ccc(N4C[C@H](CNC(C)=O)OC4=O)cc3F)CC2)cc1`: the MIC is 1 µg/mL (≈ 1.91 µM) in the assay on Enterococcus faecalis [1]; no more than 0.12 µg/mL with Streptococcus pyogenes; 0.5 µg/mL (≈ 0.953 µM) against Bacillus pumilus; 2 µg/mL (≈ 3.81 µM) with Streptococcus pneumoniae; greater than 16 µg/mL against Staphylococcus aureus [2]; 0.5 µg/mL (≈ 0.953 µM) in the assay on Enterococcus faecalis [3]. Moreover, the MIC in the assay on Staphylococcus aureus [4] was 1 µg/mL (≈ 1.91 µM); against Staphylococcus aureus [5], 0.5 µg/mL (≈ 0.953 µM); in the assay on Staphylococcus aureus [6], no more than 0.12 µg/mL; against Staphylococcus aureus [7], 0.5 µg/mL (≈ 0.953 µM); in the assay with Staphylococcus aureus [8], 0.25 µg/mL (≈ 0.477 µM); in assay [9] it was 0.25 µg/mL (≈ 0.477 µM). This molecule also had an MIC against Enterococcus faecalis [10] of 2 µg/mL (≈ 3.81 µM).
For the molecule `CC(=O)NC[C@H]1CN(c2ccc(N3CCN(C(=O)/C=C/C(=O)c4cccc5ccccc45)CC3)c(F)c2)C(=O)O1`, the minimum inhibitory concentration (MIC) in the assay on Enterococcus faecalis [1] was 1 µg/mL (≈ 1.84 µM); against Streptococcus pyogenes, 0.5 µg/mL (≈ 0.918 µM); in the assay on Bacillus pumilus it was 1 µg/mL (≈ 1.84 µM); in the assay on Streptococcus pneumoniae, 2 µg/mL (≈ 3.67 µM); against Staphylococcus aureus [2], greater than 16 µg/mL; with Enterococcus faecalis [3], 0.5 µg/mL (≈ 0.918 µM). For the same molecule, the MIC against Staphylococcus aureus [4] was 8 µg/mL (≈ 14.7 µM); against Staphylococcus aureus [5] it was 2 µg/mL (≈ 3.67 µM); against Staphylococcus aureus [6], 4 µg/mL (≈ 7.35 µM); against Staphylococcus aureus [7], 4 µg/mL (≈ 7.35 µM); with Staphylococcus aureus [8] it was 2 µg/mL (≈ 3.67 µM); in [9], 2 µg/mL (≈ 3.67 µM). The molecule further came in with an MIC against Enterococcus faecalis [10] of 8 µg/mL (≈ 14.7 µM).
Take `CC(=O)NC[C@H]1CN(c2ccc(N3CCN(C(=O)/C=C/C(=O)c4ccc(Br)cc4)CC3)c(F)c2)C(=O)O1`: the MIC was 2 µg/mL (≈ 3.49 µM) in the assay with Enterococcus faecalis [1]; 0.12 µg/mL (≈ 0.209 µM) in the assay on Bacillus pumilus; 2 µg/mL (≈ 3.49 µM) in the assay with Streptococcus pneumoniae; greater than 16 µg/mL against Staphylococcus aureus [2]; 2 µg/mL (≈ 3.49 µM) against Enterococcus faecalis [3]; 4 µg/mL (≈ 6.98 µM) against Staphylococcus aureus [4]. Moreover, the minimal inhibitory concentration (MIC) was no more than 0.12 µg/mL with Staphylococcus aureus [5]; 2 µg/mL (≈ 3.49 µM) against Staphylococcus aureus [6]; 4 µg/mL (≈ 6.98 µM) in the assay on Staphylococcus aureus [7]; 4 µg/mL (≈ 6.98 µM) with Staphylococcus aureus [8]; 0.25 µg/mL (≈ 0.436 µM) in [9]; greater than 16 µg/mL in the assay with Enterococcus faecalis [10].
For the molecule `CC(=O)NC[C@H]1CN(c2ccc(N3CCOCC3)c(F)c2)C(=O)O1` [LINEZOLID], the minimal inhibitory concentration (MIC) against Streptococcus pyogenes is 0.25 µg/mL (≈ 0.741 µM); against Bacillus pumilus it was 2 µg/mL (≈ 5.93 µM); against Streptococcus pneumoniae, 0.25 µg/mL (≈ 0.741 µM); against Staphylococcus aureus [2], greater than 16 µg/mL; with Staphylococcus aureus [4], 1 µg/mL (≈ 2.96 µM); in the assay on Staphylococcus aureus [5], 1 µg/mL (≈ 2.96 µM). In assay [9], it took 1 µg/mL (≈ 2.96 µM) to inhibit growth (MIC).
As to `CC(=O)/C=C/C(=O)N1CCN(c2ccc(N3C[C@H](CNC(C)=O)OC3=O)cc2F)CC1`, the minimal inhibitory concentration (MIC) against Enterococcus faecalis [1] is 4 µg/mL (≈ 9.25 µM); in the assay on Bacillus pumilus it was 0.5 µg/mL (≈ 1.16 µM); with Streptococcus pneumoniae, 0.5 µg/mL (≈ 1.16 µM); with Staphylococcus aureus [2] it was greater than 16 µg/mL; against Enterococcus faecalis [3], 1 µg/mL (≈ 2.31 µM); against Staphylococcus aureus [4], 1 µg/mL (≈ 2.31 µM). The MIC in the assay with Staphylococcus aureus [5] is 0.25 µg/mL (≈ 0.578 µM); in the assay with Staphylococcus aureus [6] it was 1 µg/mL (≈ 2.31 µM); against Staphylococcus aureus [7], 1 µg/mL (≈ 2.31 µM); in assay [9] it was 0.25 µg/mL (≈ 0.578 µM); with Enterococcus faecalis [10], 2 µg/mL (≈ 4.62 µM).
`CC(=O)NC[C@H]1CN(c2ccc(N3CCN(C(=O)/C=C/C(=O)c4ccc(NC(C)=O)cc4)CC3)c(F)c2)C(=O)O1`: the minimum inhibitory concentration (MIC) with Enterococcus faecalis [1] was 1 µg/mL (≈ 1.81 µM); in the assay on Streptococcus pyogenes, no more than 0.12 µg/mL; in the assay with Bacillus pumilus it was 0.5 µg/mL (≈ 0.906 µM); against Staphylococcus aureus [2] it was greater than 16 µg/mL; against Enterococcus faecalis [3] it was 0.25 µg/mL (≈ 0.453 µM); against Staphylococcus aureus [4], 1 µg/mL (≈ 1.81 µM). Further, the MIC is 0.5 µg/mL (≈ 0.906 µM) in the assay with Staphylococcus aureus [5]; no more than 0.12 µg/mL in the assay with Staphylococcus aureus [6]; no more than 0.12 µg/mL in the assay with Staphylococcus aureus [7]; no more than 0.12 µg/mL with Staphylococcus aureus [8]; no more than 0.12 µg/mL in assay [9]. The MIC result in the assay on Streptococcus pneumoniae was “inactive”.
As to `COc1ccc(C(=O)/C=C/C(=O)N2CCN(c3ccc(N4C[C@H](C/N=C(/C)S)OC4=O)cc3F)CC2)cc1`, the MIC against Enterococcus faecalis [1] is 1 µg/mL (≈ 1.85 µM); with Streptococcus pyogenes, 0.25 µg/mL (≈ 0.462 µM); against Bacillus pumilus, 0.5 µg/mL (≈ 0.925 µM); against Streptococcus pneumoniae, 1 µg/mL (≈ 1.85 µM); against Staphylococcus aureus [2], greater than 16 µg/mL; with Enterococcus faecalis [3] it was 0.25 µg/mL (≈ 0.462 µM). Besides, the MIC is 0.5 µg/mL (≈ 0.925 µM) with Staphylococcus aureus [4]; 0.25 µg/mL (≈ 0.462 µM) with Staphylococcus aureus [5]; 0.25 µg/mL (≈ 0.462 µM) against Staphylococcus aureus [6]; no more than 0.12 µg/mL in the assay with Staphylococcus aureus [7]; no more than 0.12 µg/mL with Staphylococcus aureus [8]; 0.12 µg/mL (≈ 0.222 µM) in assay [9].
In the case of `CC(=O)NC[C@H]1CN(c2ccc(N3CCN(C(=O)/C=C/c4ccccc4)CC3)c(F)c2)C(=O)O1`, the MIC in the assay on Enterococcus faecalis [1] is 0.5 µg/mL (≈ 1.07 µM); in the assay with Streptococcus pyogenes, 1 µg/mL (≈ 2.14 µM); against Bacillus pumilus, 0.5 µg/mL (≈ 1.07 µM); against Streptococcus pneumoniae, 0.5 µg/mL (≈ 1.07 µM); in the assay with Staphylococcus aureus [2], greater than 16 µg/mL; in the assay on Enterococcus faecalis [3], 1 µg/mL (≈ 2.14 µM). Moreover, the minimal inhibitory concentration (MIC) is 1 µg/mL (≈ 2.14 µM) against Staphylococcus aureus [4]; 1 µg/mL (≈ 2.14 µM) in the assay with Staphylococcus aureus [5]; 2 µg/mL (≈ 4.29 µM) in the assay on Staphylococcus aureus [6]; 2 µg/mL (≈ 4.29 µM) with Staphylococcus aureus [7]; 2 µg/mL (≈ 4.29 µM) in the assay with Staphylococcus aureus [8]; 1 µg/mL (≈ 2.14 µM) in assay [9]. This molecule came in with an MIC against Enterococcus faecalis [10] of 0.5 µg/mL (≈ 1.07 µM).
Take `CC(=O)NC[C@H]1CN(c2ccc(N3CCN(C(=O)/C=C/C(=O)[O-])CC3)c(F)c2)C(=O)O1.[Na+]`: the minimum inhibitory concentration (MIC) (against Bacillus pumilus; against Enterococcus faecalis [3]; against Staphylococcus aureus [5]; in [9]) was greater than 16 µg/mL in each case.
Turning to `CC(=O)NC[C@H]1CN(c2ccc(N3CCN(C(=O)CO)CC3)c(F)c2)C(=O)O1` [EPEREZOLID], the MIC against Enterococcus faecalis [1] was 1 µg/mL (≈ 2.54 µM); with Streptococcus pyogenes, 0.5 µg/mL (≈ 1.27 µM); against Bacillus pumilus, 1 µg/mL (≈ 2.54 µM); in the assay with Streptococcus pneumoniae it was 0.5 µg/mL (≈ 1.27 µM); against Staphylococcus aureus [2], greater than 16 µg/mL; in the assay with Enterococcus faecalis [3], 2 µg/mL (≈ 5.07 µM). The minimum inhibitory concentration (MIC) stood at 1 µg/mL (≈ 2.54 µM) in the assay on Staphylococcus aureus [4]; 2 µg/mL (≈ 5.07 µM) against Staphylococcus aureus [5]; 2 µg/mL (≈ 5.07 µM) against Staphylococcus aureus [6]; 2 µg/mL (≈ 5.07 µM) in the assay with Staphylococcus aureus [7]; 2 µg/mL (≈ 5.07 µM) against Staphylococcus aureus [8]; 1 µg/mL (≈ 2.54 µM) against Enterococcus faecalis [10].
As for `CC(=O)NC[C@H]1CN(c2ccc(N3CCN(C(=O)/C=C/C(=O)c4ccccc4)CC3)c(F)c2)C(=O)O1`, the minimal inhibitory concentration (MIC) against Enterococcus faecalis [1] is 2 µg/mL (≈ 4.04 µM); with Streptococcus pyogenes it was 0.25 µg/mL (≈ 0.506 µM); in the assay on Bacillus pumilus, 1 µg/mL (≈ 2.02 µM); against Streptococcus pneumoniae it was no more than 0.12 µg/mL; against Staphylococcus aureus [2] it was 4 µg/mL (≈ 8.09 µM); with Enterococcus faecalis [3] it was 0.5 µg/mL (≈ 1.01 µM). The minimum inhibitory concentration (MIC) is no more than 0.12 µg/mL in the assay on Staphylococcus aureus [4]; no more than 0.12 µg/mL against Staphylococcus aureus [5]; no more than 0.12 µg/mL in the assay with Staphylococcus aureus [6]; no more than 0.12 µg/mL in the assay on Staphylococcus aureus [7]; 0.25 µg/mL (≈ 0.506 µM) in the assay with Staphylococcus aureus [8]; 0.12 µg/mL (≈ 0.243 µM) in [9]. This molecule also registered a minimal inhibitory concentration (MIC) against Enterococcus faecalis [10] of 2 µg/mL (≈ 4.04 µM).
